Test results taken from patent US20060234276A1, “Methods of treatment of type 2 diabetes” (priority 1998, published 2006).
Square brackets hold non-standard residues; d marks the D form. Peptide text beside a SMILES is read from it. * marks the point of attachment. Sta = CC(C)C[C@H](N)[C@@H](O)CC(=O)O; Isovaleryl = CC(C)CC(=O)*

Key:
[1] = tested on: mouse pancreatic islets; assay: Static incubation of isolated pancreatic islets, insulin secretion; format: cell-based; conditions: for insulin secretory responses to 20 mM glucose in presence of other protease inhibitors: 100 μM inhibitor; for effect on basal or glucose-stimulated insulin secretion: 100 μM Cathepsin B Inhibitor II, 20 μM Lactacystin
Experimental: Static incubation of isolated pancreatic islets. Isolation of mouse pancreatic islets was accomplished using collagenase digestion as previously described (Pontoglio et al., 1998). […] Triplicate groups of 5 islets were then incubated in borosilicate tubes containing 1 ml of KRB with the same concentration of inhibitor and various insulin secretagogues for one hour in a moving water bath at 37° C. The reaction was stopped by placing the tubes on ice and an aliquot of the buffer was removed for measurement of insulin levels. Control studies, in which the incubation mixture contained vehicle (0.1% DMSO) only, were performed using aliquots of the same batch of islets
Assay methods. Insulin concentrations were measured by a double antibody radioimmunoassay using a rat insulin standard. The intra-assay coefficient of variation for this technique is 7%. All samples were assayed in duplicate.

[2] = tested on: perifused mouse islets; assay: Insulin secretion from perifused islets; format: cell-based; conditions: 4 hr preincubation; 100 μM ALLM, 200 μM E-64-d
Experimental: Insulin secretion from perifused islets. Insulin secretion from perifused islets was measured using a modification of a previously described protocol (Pontoglio et al., 1998; Sreenan et al., 1998).

[3] = tested on: isolated β-cells; assay: Membrane capacitance recordings (exocytosis) in isolated β-cells; format: cell-based, mouse; conditions: 4 days culture with inhibitor
Experimental: Isolation of pancreatic β-cells. Single β-cells were obtained from isolated islets dispersed by gentle trituration (120 strokes through a 200 μl pipette tip) in Ca^2+ and Mg^2+-free PBS containing […]. Cells were plated on glass coverslips and maintained in culture in RPMI containing 11.6 mM glucose for 48-96 hr.
Capacitance recordings. Capacitance measurements were made with the phase-tracking technique in which a 60 mV peak-to-peak sine wave was superimposed on a holding potential of −80 mV as previously described. Conductance and capacitance values were continuously generated and recorded. The whole-cell capacitance was canceled with the slow capacitance compensation; unbalancing the slow capacitance compensation by 100 fF provided the capacitance calibration signal used to calculate changes in membrane capacitance. The sinusoidal voltage template was interrupted to deliver depolarizations to a cell. Beta cells were stimulated with a train of ten step depolarizations to +20 mV (HP=−80 mV). Each step depolarization lasted 150 ms and was separated by 400 ms interpulse duration. Capacitance measurements were carried out in the perforated whole-cell configuration. The data were collected at a 500 μsec sampling rate and filtered at 5 kHz. Recordings with series resistance >20 MΩ were discarded. Series resistance compensation was applied in all recordings.
The recording solution for the capacitance measurements contained (in mM): 130 NaCl, 2 glucose, 10 Na-HEPES, 1 MgCl2, 2 KCl, and 5 CaCl2, pH 7.3 with NaOH. The pipette solution contained (in mM): 135 Cs-glutamate, 10 Na-HEPES, 9.5 NaCl, 0.5 TEACl, and 0.5 CaCl2, pH7.3 with CsOH. The pipettes were backfilled with an identical solution to which amphotericin B (final concentration of 0.5 mg/ml) was added and then sonicated. The amphotericin B stock solution (125 mg/ml) was kept frozen at −20° C. and used for one week. ALLM pre-treatment was as described above (see patch-clamp electrophysiology section). All electrophysiological recordings were carried out at room temperature (22-24° C.)

[4] = tested on: mouse islets; assay: Measurement of islet [Ca2+]i (Fura-2); format: cell-based
Experimental: (§1) Measurement of islet [Ca^2+]i, and NAD(P)H. Islet [Ca^2+]i and NAD(P)H were measured as previously described (Pontoglio et al., 1998; Dukes et al., 1998).
Insulin secretory responses to glucose and most other secretagogues is mediated by a rise in intracellular free calcium ([Ca^2+]i). We therefore measured [Ca^2+]i responses to glucose, KIC and KCl using Fura-2 as the Ca^2+ indicator. In comparison to the responses from the control islets, the most prominent abnormality in [Ca^2+]i responses to glucose and KIC was a delay of the [Ca^2+]i responses (FIG. 21). The mean time interval between administration of 14 mM glucose and the point of half maximal response (T1/2.) was 120±14 seconds in control islets. […] There was no delay in the appearance of [Ca^2+]i response to KCl, nor was the magnitude of the response reduced.

[5] = tested on: mouse islets; assay: Glucose utilization and oxidation rates in islets; format: cell-based
Experimental: Glucose utilization and oxidation rates. Glucose utilization and oxidation rates were measured as previously described (Dukes et al., 1998; Zhou et al., 1996) in mouse islets cultured as described above in the presence or absence of calpain inhibitors.

[6] = tested on: mouse islets; assay: Islet NAD(P)H autofluorescence response; format: cell-based
Experimental: as §1

[7] = tested on: calpain; assay: Calpain activity in mouse pancreatic islets (Boc-Leu-Met-CMAC cleavage); format: cell-based
[8] = tested on: rat adipocytes; assay: 2-Deoxyglucose uptake into adipocytes; format: cell-based; conditions: 100 μM ALLM or 200 μM E-64-d
Experimental: Adipocytes were isolated from epididymal fat pads of 3 month old male Wistar rats as described previously (Robdell, 1964) with the following modification: fat pads were minced to 1-2 mm pieces and incubated for ˜25 min at 37° C. with collagenase I (1 mg/ml, Worthington Biochemicals, Lakewood, N.J.) in KRB containing 10 mM Hepes (pH 7.4), 0.2% BSA and 2 mM sodium pyruvate. The cell suspension was filtered through a nylon mesh (134 μM, Spectrum Lab., Laguna Hills, Calif.) washed three times by floating and allowed to rest for 45 min in the KRB. […] Then another 50 μl of KRB containing 5 mM 2-DOG (final concentration 1 mM), 0.5 μCi of 2-deoxy-[2,6-^3H]glucose was added and cells were incubated for a further 5 min at 25° C. The transport was stopped by adding cytochalasin B (final concentration 50 μM) and cells were spun through 250 μl of dinonyl phthalate oil (Fisher Scientific, Pittsburgh, Pa.). Cells were then transferred to scintillation vials for counting.

[9] = tested on: rat soleus muscle strips; assay: 2-Deoxyglucose uptake into soleus muscle strips; format: cell-based; conditions: 100 μM ALLM or 200 μM E-64-d
Experimental: 2-Deoxyglucose uptake into skeletal muscle and adipose tissue. 2-deoxyglucose (2-DOG) uptake by isolated strips of soleus muscle from normal Wistar rats was measured using a modification of a previously described protocol (Burant et al., 1984). […] Muscles were then extracted and 2-DOG uptake calculated as previously described (Burant et al., 1984).

[10] = tested on: soleus muscle strips; assay: Glycogen synthesis rates in skeletal muscle; format: cell-based, rat; conditions: 100 μM ALLM or 200 μM E-64-d
From the text: Glycogen synthesis rates in skeletal muscle.

[11] = tested on: islets; assay: Insulin content of islets after 48 h inhibitor exposure; format: cell-based, mouse; conditions: 48 hours treatment

CC(=O)N[C@@H](CC(C)C)C(=O)N[C@H](C(=O)N[C@H](C=O)CCCCN)C(C)C [Cath B Inhibitor II] (Ac-Leu-Val-Lys-aldehyde)
insulin secretory responses to 20 mM glucose in presence of other protease inhibitors [1]: not altered
effect on basal or glucose-stimulated insulin secretion ([1]; 48 h): did not significantly affect

CCOC(=O)[C@H]1O[C@@H]1C(=O)N[C@@H](CC(C)C)C(=O)NCCC(C)C [E-64-d, ethyl (+)-(2S,3S)-3-[(S)-3-Methyl-1-(3-methylbutylcarbamoyl)butyl-carbamoyl]-2-oxiranecarboxylate]
insulin secretory response to 20 mM glucose after recovery ([1]; 48-h treatment, then 2 days recovery without inhibitor): essentially normal insulin secretory response
effect on insulin secretion at 2 mM glucose ([1]; 4 hr exposure, ALLM 250 μM, E-64-d 200 μM, 2 mM glucose): not observed
basal insulin secretion (2 mM glucose) vs control-treated islets ([1]; 48 hours exposure): no significant difference
insulin secretory response to 30 mM KCl ([1]; 48 h treated islets): significantly reduced
insulin secretory response to carbachol ([1]; 48 h treated islets): attenuated
insulin secretory response to glyceraldehyde ([1]; 48 h treated islets): responded normally
insulin secretory response to mastoparan ([1]; 48 h treated islets): attenuated
insulin-secretory response to keto-isocaproic acid (KIC) ([1]; 48 h treated islets): decreased
insulin secretory responses to glucose (summary statement of Example 8) ([1]; isolated mouse islets, introductory summary, no conditions given): increase in glucose induced insulin secretion
enhancement of insulin secretory response to 20 mM glucose in dynamic islet perifusion [2]: also observed
rates of exocytosis in β-cells [3]: significantly lower rates of exocytosis
[Ca2+]i response to high glucose ([4]; 4 hr preincubation, 14 mM glucose): not associated with increases in [Ca^2+]i
[Ca2+]i response to glucose ramp (2 to 26 mM over 48 mins) ([4]; 48 h treated islets): diminished
[Ca2+]i responses to 30 mM KCl vs control ([4]; 48 h treated islets): not different
integrated [Ca2+]i responses (area under the curves) to glucose and KIC vs control ([4]; 48 h treated islets): significantly smaller
T1/2 of [Ca2+]i response to 14 mM glucose (time to half maximal response) ([4]; 48 h treated islets, control 120±14 seconds): 4.42 ± 1.08 min
T1/2 of [Ca2+]i response to KIC ([4]; 48 h treated islets, control 125±9): 5.5 ± 0.12 min
rate of glucose utilization at basal glucose ([5]; 2 mM glucose, 100 μM ALLM or 200 μM E-64-d, 4 h): 15.5±4 pmol/islet/hr
rate of glucose utilization at stimulatory glucose ([5]; 20 mM glucose, 100 μM ALLM or 200 μM E-64-d, 4 h): 79.5±9.5 pmol/islet/hr
rate of basal glucose utilization and oxidation at 3.3 mM glucose ([5]; 48 h treated islets): no significant changes
rates of glycolysis and glucose oxidation at stimulating concentrations of glucose ([5]; 48 h treated islets vs controls): significantly reduced
glucose oxidation rate at basal glucose ([5]; basal glucose, ALLM or E-64-d, 4 h): 5.2±0.4 pmol/islet/hr
glucose oxidation rate at stimulatory glucose ([5]; stimulatory glucose, ALLM or E-64-d, 4 h): 40.0±2.4 pmol/islet/hr
NAD(P)H response to increase in glucose from 2 to 14 mM ([6]; 100 μM ALLM or E-64-d, 4 hr preincubation): 2.8±0.3 fold increase
NAD(P)H responses to KIC vs control ([6]; 48 h treated islets): significantly reduced
NAD(P)H responses to glucose vs control ([6]; 48 h treated islets): comparable
area under the curve of rate of generation of fluorescent calpain product ([7]; 200 μM inhibitor, 4 hr incubation): 45±5 % of control values
residual calpain activity in intact islets ([7]; 48 h treatment, 100 μM ALLM or 200 μM E-64-d): 55±4 % of control treated islets
2-DOG uptake into adipocytes with insulin ([8]; insulin 12 nmol/L): 749±129 pmol/2×10^5 cells/5 min
2-DOG uptake into adipocytes without insulin ([8]; no insulin): 361±29 pmol/2×10^5 cells/5 min
2-deoxyglucose uptake into soleus muscle strips with insulin ([9]; insulin 12 nM): 0.36±0.02 (mol/ml H20/30 mins
2-deoxyglucose uptake into soleus muscle strips without insulin ([9]; no insulin): 0.31±0.02 (mol/ml H20/30 mins
magnitude of insulin-induced increase in muscle glycogen synthesis ([10]; insulin 6 nM): 0.31±0.09 nmol glucose/mg/hr
rate of muscle glycogen synthesis with insulin ([10]; insulin 6 nM): 0.80±0.14 nmol glucose/mg/hr
rate of muscle glycogen synthesis without insulin ([10]; no insulin): 0.49±0.08 nmol glucose/mg/hr
insulin content in islets vs control islets [11]: comparable

CC(=O)N[C@@H](CSC(=O)[C@]1([C@@H](O)C(C)C)NC(=O)[C@H](C)[C@@H]1O)C(=O)O [Lactacystin]
effect on basal or glucose-stimulated insulin secretion ([1]; 48 h): did not significantly affect

CC(C)CC(=O)N[C@H](C(=O)N[C@H](C(=O)N[C@@H](CC(C)C)[C@@H](O)CC(=O)N[C@@H](C)C(=O)N[C@@H](CC(C)C)[C@@H](O)CC(=O)O)C(C)C)C(C)C [pepstatin A] (Isovaleryl-VV[Sta]A[Sta]-OH)
insulin secretory responses to 20 mM glucose in presence of other protease inhibitors [1]: not altered

MDL28170
inhibition of 20 mM glucose-stimulated insulin secretion ([1]; 48 h, 100 μM ALLM (so in the source), 50 μM MDL28170): approximately 60%
